In test [1] the target is T1, Oxysterols receptor LXR-alpha (Homo sapiens, UniProt Q13133).
T1 sequence (Q13133 whole entry): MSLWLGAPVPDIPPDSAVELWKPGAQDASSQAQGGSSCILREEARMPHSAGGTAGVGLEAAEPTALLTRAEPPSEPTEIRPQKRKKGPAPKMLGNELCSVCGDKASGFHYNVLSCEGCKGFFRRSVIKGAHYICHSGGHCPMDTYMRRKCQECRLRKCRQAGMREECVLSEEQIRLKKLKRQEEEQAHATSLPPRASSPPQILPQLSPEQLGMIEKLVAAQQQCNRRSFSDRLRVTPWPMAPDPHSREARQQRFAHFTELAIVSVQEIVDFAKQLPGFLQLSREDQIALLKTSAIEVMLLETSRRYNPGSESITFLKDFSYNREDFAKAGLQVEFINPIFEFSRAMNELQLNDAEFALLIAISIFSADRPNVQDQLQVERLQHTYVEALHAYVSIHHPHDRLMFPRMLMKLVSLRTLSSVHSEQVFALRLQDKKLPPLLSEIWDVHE
Format: functional.

For test [2], the target named is T2, Peroxisome proliferator-activated receptor alpha (Homo sapiens, UniProt Q07869).
T2 sequence (Q07869 whole entry): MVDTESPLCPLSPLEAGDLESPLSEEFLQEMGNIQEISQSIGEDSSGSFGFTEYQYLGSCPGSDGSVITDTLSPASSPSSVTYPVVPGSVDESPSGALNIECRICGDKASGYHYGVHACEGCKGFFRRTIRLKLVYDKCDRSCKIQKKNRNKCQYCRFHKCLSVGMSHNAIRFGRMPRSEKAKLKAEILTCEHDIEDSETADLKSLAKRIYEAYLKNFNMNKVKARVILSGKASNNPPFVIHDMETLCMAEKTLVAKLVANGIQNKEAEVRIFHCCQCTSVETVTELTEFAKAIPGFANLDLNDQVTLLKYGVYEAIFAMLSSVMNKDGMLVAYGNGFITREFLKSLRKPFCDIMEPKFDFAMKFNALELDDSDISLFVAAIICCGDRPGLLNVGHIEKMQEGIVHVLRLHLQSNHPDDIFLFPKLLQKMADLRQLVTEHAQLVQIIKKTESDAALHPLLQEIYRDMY
Format: functional.

Test [3] deals with T3, Retinoic acid receptor alpha (Homo sapiens, UniProt P10276).
T3 sequence (P10276 whole entry): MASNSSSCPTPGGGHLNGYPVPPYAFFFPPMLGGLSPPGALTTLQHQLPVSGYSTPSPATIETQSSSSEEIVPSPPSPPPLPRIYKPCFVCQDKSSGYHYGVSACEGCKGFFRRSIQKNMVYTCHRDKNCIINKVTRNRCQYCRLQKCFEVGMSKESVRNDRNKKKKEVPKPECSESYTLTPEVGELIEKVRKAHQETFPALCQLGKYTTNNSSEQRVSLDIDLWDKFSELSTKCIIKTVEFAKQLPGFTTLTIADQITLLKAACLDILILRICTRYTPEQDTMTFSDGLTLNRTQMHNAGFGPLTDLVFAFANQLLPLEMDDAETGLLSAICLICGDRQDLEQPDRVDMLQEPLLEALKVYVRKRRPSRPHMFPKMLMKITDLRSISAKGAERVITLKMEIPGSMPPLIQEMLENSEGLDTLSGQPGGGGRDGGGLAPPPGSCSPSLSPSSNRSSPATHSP
It is filed as functional, cell-based.

Test [4] has as its target T4, Retinoic acid receptor beta (Homo sapiens, UniProt P10826).
T4 sequence (P10826 whole entry): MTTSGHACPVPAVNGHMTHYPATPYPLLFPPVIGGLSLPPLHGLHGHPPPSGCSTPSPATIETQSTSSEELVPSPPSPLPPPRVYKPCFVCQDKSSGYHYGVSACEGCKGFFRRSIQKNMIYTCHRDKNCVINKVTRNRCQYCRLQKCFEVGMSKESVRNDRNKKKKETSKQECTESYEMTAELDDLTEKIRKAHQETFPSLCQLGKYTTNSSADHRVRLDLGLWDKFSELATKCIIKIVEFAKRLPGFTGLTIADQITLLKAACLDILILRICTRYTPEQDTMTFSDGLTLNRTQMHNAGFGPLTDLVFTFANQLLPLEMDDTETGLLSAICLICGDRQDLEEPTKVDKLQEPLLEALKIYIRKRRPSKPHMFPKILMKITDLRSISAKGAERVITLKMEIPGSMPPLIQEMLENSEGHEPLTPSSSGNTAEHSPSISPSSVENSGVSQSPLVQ
Format: functional, cell-based.

A further test addresses D(1B) dopamine receptor (Homo sapiens, UniProt P21918).
Test [5] deals with T5, Type-2 angiotensin II receptor (Homo sapiens, UniProt P50052).
T5 sequence (P50052 whole entry): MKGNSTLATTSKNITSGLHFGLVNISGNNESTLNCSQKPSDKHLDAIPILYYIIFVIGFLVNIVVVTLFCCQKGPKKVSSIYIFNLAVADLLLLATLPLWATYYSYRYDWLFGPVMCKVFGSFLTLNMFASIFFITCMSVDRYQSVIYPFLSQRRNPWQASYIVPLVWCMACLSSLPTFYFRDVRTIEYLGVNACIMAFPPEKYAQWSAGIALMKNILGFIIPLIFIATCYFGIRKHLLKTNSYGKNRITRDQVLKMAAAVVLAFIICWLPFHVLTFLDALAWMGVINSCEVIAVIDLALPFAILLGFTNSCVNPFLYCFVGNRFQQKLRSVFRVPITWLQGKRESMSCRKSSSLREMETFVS
It is filed as functional.

The target in test [6] is T6, Prostaglandin G/H synthase 1 (Rattus norvegicus, UniProt Q63921).
T6 sequence (Q63921 whole entry): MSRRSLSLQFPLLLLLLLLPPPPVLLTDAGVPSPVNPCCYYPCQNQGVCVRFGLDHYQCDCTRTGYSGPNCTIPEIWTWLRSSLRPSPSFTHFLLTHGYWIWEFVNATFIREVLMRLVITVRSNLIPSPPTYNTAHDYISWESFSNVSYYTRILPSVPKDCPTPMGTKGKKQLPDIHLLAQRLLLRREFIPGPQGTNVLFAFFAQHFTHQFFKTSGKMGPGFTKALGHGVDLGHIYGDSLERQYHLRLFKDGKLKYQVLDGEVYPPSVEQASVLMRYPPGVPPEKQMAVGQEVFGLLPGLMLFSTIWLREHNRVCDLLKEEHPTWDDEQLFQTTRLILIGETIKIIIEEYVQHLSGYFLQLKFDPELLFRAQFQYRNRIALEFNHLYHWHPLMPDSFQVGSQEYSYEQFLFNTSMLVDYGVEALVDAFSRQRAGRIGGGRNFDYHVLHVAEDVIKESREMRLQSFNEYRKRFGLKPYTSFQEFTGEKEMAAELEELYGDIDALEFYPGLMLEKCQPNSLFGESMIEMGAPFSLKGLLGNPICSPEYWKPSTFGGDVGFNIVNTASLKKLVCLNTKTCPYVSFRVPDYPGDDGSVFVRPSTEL
Format: functional.

The target in another test is Histamine H1 receptor (Homo sapiens, UniProt P35367). Format: functional, cell-based.

The values below come from ChEMBL document CHEMBL5291721, “A preclinical secondary pharmacology resource illuminates target-adverse drug reaction associations of marketed drugs” (Nat Commun, 2023).

What is called AC50 is the midpoint of the concentration-response curve, whichever way the signal moves. Low readings indicate greater potency, high ones weaker potency.

Bounds are passed on as bounds.
Also: assay procedure not described here.

Sequence of D(1B) dopamine receptor (P21918 whole entry): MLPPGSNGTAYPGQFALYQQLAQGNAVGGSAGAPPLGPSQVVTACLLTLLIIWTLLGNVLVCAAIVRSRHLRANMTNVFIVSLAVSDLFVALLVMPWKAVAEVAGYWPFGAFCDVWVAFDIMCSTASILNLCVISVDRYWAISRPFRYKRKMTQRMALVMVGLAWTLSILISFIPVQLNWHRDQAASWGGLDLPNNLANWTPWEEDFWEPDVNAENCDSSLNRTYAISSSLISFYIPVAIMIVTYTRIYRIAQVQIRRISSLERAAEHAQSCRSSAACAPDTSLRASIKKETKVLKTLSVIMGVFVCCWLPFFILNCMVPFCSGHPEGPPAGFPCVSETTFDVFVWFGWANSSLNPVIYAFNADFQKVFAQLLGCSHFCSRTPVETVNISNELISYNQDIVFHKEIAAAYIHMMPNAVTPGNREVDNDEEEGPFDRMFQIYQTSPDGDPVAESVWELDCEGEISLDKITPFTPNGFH
Sequence of Histamine H1 receptor (P35367 whole entry): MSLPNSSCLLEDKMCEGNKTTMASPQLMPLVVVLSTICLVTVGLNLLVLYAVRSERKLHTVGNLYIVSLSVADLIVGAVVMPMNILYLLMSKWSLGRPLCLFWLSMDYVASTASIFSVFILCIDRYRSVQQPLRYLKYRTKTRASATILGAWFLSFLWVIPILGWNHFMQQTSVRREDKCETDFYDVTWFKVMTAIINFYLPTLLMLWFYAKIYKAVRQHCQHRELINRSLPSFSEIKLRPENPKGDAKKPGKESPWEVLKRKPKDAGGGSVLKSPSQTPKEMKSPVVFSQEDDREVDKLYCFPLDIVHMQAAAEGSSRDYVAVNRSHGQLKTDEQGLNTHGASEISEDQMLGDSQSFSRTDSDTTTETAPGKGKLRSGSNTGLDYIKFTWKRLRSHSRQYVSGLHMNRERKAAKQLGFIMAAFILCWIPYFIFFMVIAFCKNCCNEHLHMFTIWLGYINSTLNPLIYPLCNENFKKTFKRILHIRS

Turning to `CC(/C=C1\SC(=S)N(CC(=O)O)C1=O)=C\c1ccccc1`, the AC50 in test [1], in test [2], in test [3] and in test [4] was above 30 µM in each case.

As to `CC1(C)S[C@@H]2[C@H](NC(=O)[C@H](N)c3ccc(O)cc3)C(=O)N2[C@H]1C(=O)O` [AMOXICILLIN], the half-maximal activity concentration (AC50) at D(1B) dopamine receptor was above 10 µM; in test [1], 19 µM; in test [2], above 30 µM; in test [3] it was above 30 µM; in test [4] it was 18 µM.

The molecule `O=C1CN2Cc3c(ccc(Cl)c3Cl)N=C2N1` [ANAGRELIDE] came in with an AC50 in test [5] above 100 µM.

The molecule `Clc1cccc(Cl)c1N=C1NCCN1` [CLONIDINE] came in with a half-maximal activity concentration (AC50) in test [5] above 100 µM.

As to `COC(=O)[C@H](c1ccccc1Cl)N1CCc2sccc2C1` [CLOPIDOGREL], the AC50 on D(1B) dopamine receptor was above 10 µM; in test [6], 27.7 µM.

In turn, `Cc1cnc(NC(=O)C2=C(O)c3ccccc3S(=O)(=O)N2C)s1` [MELOXICAM] registered a half-maximal activity concentration (AC50) on D(1B) dopamine receptor above 10 µM.

`CN(C)c1cc(CNCC(C)(C)C)c(O)c2c1C[C@H]1C[C@H]3[C@H](N(C)C)C(O)=C(C(N)=O)C(=O)[C@@]3(O)C(O)=C1C2=O` [OMADACYCLINE] had an AC50 at Histamine H1 receptor above 30 µM.

As to `CC(C)C[C@H](CN)CC(=O)O` [PREGABALIN], the AC50 (on Histamine H1 receptor; in test [6]) was above 30 µM in each case.

With `CNC(=O)c1cc(Oc2ccc(NC(=O)Nc3ccc(Cl)c(C(F)(F)F)c3)c(F)c2)ccn1` [REGORAFENIB], the AC50 in test [1], in test [2], in test [3] and in test [4] was above 30 µM throughout.

As for `CCOc1cc(CC(=O)N[C@@H](CC(C)C)c2ccccc2N2CCCCC2)ccc1C(=O)O` [REPAGLINIDE], the AC50 in test [1], in test [2], in test [3] and in test [4] was above 30 µM in each case.

`CCCCNc1ccc(C(=O)OCCN(C)C)cc1` [TETRACAINE] came in with a half-maximal activity concentration (AC50) at D(1B) dopamine receptor above 10 µM.
